Calls of active or inactive are those of the source. The rule behind the calls is not given here.
What was measured:
[1] = Cytotoxicity against human HCT116 cells assessed as decrease in cell viability after 17 hrs by MTT assay; type: functional, cell-based; settings: HCT-116, 17 h
HCT-116 [2] = assay: Induction of ROS generation in human HCT116 cells at 12.5 uM after 5 mins by DCFH-DA probe based fluorescence assay relative to control; type: functional, cell-based
HCT-116 [3] = assay: Induction of H2O2 accumulation in human HCT116 cells at 12.5 uM relative to control; type: functional
HCT-116 [4] = assay: Induction of apoptosis in human HCT116 cells assessed as increase in caspase 3/7 activation at 50 to 200 uM after 17 hrs by luciferase coupled luminescence assay; type: functional, cell-based
HCT-116 [5] = assay: Induction of apoptosis in human HCT116 cells assessed as nuclear condensation at 100 uM after 48 hrs by Hoechst 33342 staining based assay; type: functional, cell-based
HCT-116 [6] = assay: Cytotoxicity against human HCT116 cells assessed as decrease in cell viability at 6.25 to 200 uM after 17 hrs by MTT assay; type: functional, cell-based

Structure (SMILES) | IC50 [1] | Activity (HCT-116 [2]) | fold change (FC) (HCT-116 [3]) | Activity (HCT-116 [4]) | Activity (HCT-116 [5]) | Activity (HCT-116 [6])
CC1=C[C@@H]2C(=CC1)[C@](C)(OO)CC[C@@H]2C(C)C | 61.2 µM | Active | 2 - 3 | Active | Active | Active
Cc1ccc2c(c1)[C@H](C(C)C)CC[C@@]2(C)OO | 43.7 µM | Active | 2 - 3 | Active | Active | Active
CC(C)[C@H]1CC[C@H](C)[C@@]23CC[C@@](C)(C=C12)OO3 | 38.6 µM | Active | 2 - 3 | Active | Active | Active

From ChEMBL document CHEMBL3856244, “Hydrogen peroxide derived from marine peroxy sesquiterpenoids induces apoptosis in HCT116 human colon cancer cells” (Bioorg Med Chem Lett, 2016)
